DC50 and Dmax data for 13 molecules are collected here from US20260092061A1, “COMPOUNDS FOR TARGETED PROTEIN DEGRADATION” (Amphista Therapeutics Limited, priority 2022, published 2026).

Molecules are shown by their SMILES.

Broadly, the DC50 is the concentration at which degradation of the target reaches its halfway point. A word on the Dmax: it is the largest share of the target that was removed.

The target in this experiment is T1, BRD9 (Homo sapiens, UniProt Q9H8M2).
T1 sequence (Q9H8M2 1-597): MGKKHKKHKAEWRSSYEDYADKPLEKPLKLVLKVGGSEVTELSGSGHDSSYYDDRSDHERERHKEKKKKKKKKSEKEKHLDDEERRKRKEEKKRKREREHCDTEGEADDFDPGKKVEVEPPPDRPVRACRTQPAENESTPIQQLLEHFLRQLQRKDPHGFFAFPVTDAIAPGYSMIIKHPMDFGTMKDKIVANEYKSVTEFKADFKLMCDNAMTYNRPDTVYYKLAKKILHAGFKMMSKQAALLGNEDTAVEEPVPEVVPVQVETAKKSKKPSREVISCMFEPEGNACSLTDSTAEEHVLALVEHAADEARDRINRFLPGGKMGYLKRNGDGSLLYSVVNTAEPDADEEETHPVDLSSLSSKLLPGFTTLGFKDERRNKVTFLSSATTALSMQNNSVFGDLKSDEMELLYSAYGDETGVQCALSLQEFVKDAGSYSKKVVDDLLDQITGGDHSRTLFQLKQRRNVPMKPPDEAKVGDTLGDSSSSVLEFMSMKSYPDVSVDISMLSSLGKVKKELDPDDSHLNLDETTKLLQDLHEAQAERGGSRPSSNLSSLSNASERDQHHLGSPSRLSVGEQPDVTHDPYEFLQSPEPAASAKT
Briefly: Degradation of BRD9 (IF), immunofluorescence in MV4-11 cells, 24 hours (Assay Protocol 2). As to conditions: BRD9 degradation; for DC50: Assay protocol 2, read-out: DC50; for Dmax: MV4-11, Assay protocol 2, read-out: Dmax. Details: A suspension of MV4-11 cells (ATCC CRL-9591) was prepared; host or cells: MV4-11. Type of experiment: cell-based. The essentials: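 MV4-11 cells treated with compound 24 h at 37° C., then fixed, permeabilised and immunostained for BRD9 (anti-BRD9 E4Q3F, Alexa 647 secondary, Hoechst counterstain). High-content imaging quantified nuclear BRD9 signal; % BRD9 remaining normalised to DMSO and 100 nM CFT-8634 controls.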

Take `COc1cc(-c2cn(C)c(=O)c(C)c2C)cc(OC)c1CN1[C@H](C)CN(Cc2cccc3c2CCN(C(=O)/C(C#N)=C/C(C)(C)C)C3C)C[C@@H]1C` (mixture of isomers) [Compound B114, (E/Z)-2-(5-(((3S,5R)-4-(2,6-dimethoxy-4-(1,4,5-trimethyl-6-oxo-1,6-dihydropyridin-3-yl)benzyl)-3,5-dimethylpiperazin-1-yl)methyl)-1-methyl-1,2,3,4-tetrahydroisoquinoline-2-carbonyl)-4,4-dimethylpent-2-enenitrile]: the DC50 lay in the range of 1.25 to 10 nM and the Dmax was greater than 75%.
For the molecule `COc1cc(-c2cn(C)c(=O)c(C)c2C)cc(OC)c1CN1CCCN(Cc2cccc3c2CCN(C(=O)/C(C#N)=C/c2cccc(C(F)(F)F)n2)C3C)CC1` (mixture of isomers) [Compound B68, (E/Z)-2-(5-((4-(2,6-dimethoxy-4-(1,4,5-trimethyl-6-oxo-1,6-dihydropyridin-3-yl)benzyl)-1,4-diazepan-1-yl)methyl)-1-methyl-1,2,3,4-tetrahydroisoquinoline-2-carbonyl)-3-(6-(trifluoromethyl)pyridin-2-yl)acrylonitrile], the DC50 was less than 1.25 nM and the Dmax was greater than 75%.
For `COc1cc(-c2cn(C)c(=O)c(C)c2C)ccc1CN1CCN(Cc2cccc3c2CCN(C(=O)/C(C#N)=C/C(C)(C)C)C3C)C2(CC2)C1` (mixture of isomers) [Compound B147, (E/Z)-2-(5-((7-(2-methoxy-4-(1,4,5-trimethyl-6-oxo-1,6-dihydropyridin-3-yl)benzyl)-4,7-diazaspiro[2.5]octan-4-yl)methyl)-1-methyl-1,2,3,4-tetrahydroisoquinoline-2-carbonyl)-4,4-dimethylpent-2-enenitrile], in that order: 1.25 to 10 nM and greater than 75%.
Regarding `COc1cc(-c2cn(C)c(=O)c(C)c2C)cc(OC)c1CN1CCC2(CC1)CCN(c1cccc3c1CCN(C(=O)/C(C#N)=C/C(C)(C)C)C3C)C2` (centres unmarked) [Compound B63, (E2Z)-2-(5-(8-(2,6-dimethoxy-4-(1,4,5-trimethyl-6-oxo-1,6-dihydropyridin-3-yl)benzyl)-2,8-diazaspiro[4.5]decan-2-yl)-1-methyl-1,2,3,4-tetrahydroisoquinoline-2-carbonyl)-4,4-dimethylpent-2-enenitrile], the DC50 lay in the range of 1.25 to 10 nM and the Dmax fell in the range of 40 to 70%.
In the case of `COc1cc(-c2cn(C)c(=O)c(C)c2C)cc(OC)c1CN1CCN(Cc2ccc3c(c2)[C@@H](C)N(C(=O)/C(C#N)=C/C(C)(C)C)CC3)C2(CC2)C1` (single isomer, unassigned) [Compound C35, (E/Z)-2-(7-((7-(2,6-dimethoxy-4-(1,4,5-trimethyl-6-oxo-1,6-dihydropyridin-3-yl)benzyl)-4,7-diazaspiro[2.5]octan-4-yl)methyl)-1-methyl-1,2,3,4-tetrahydroisoquinoline-2-carbonyl)-4,4-dimethylpent-2-enenitrile], the DC50 is less than 1.25 nM and the Dmax is greater than 75%.
In the case of `COc1cc(-c2cn(C)c(=O)c(C)c2C)cc(OC)c1CN1CCN(Cc2cccc3c2CCN(C(=O)/C(C#N)=C/C2CCCCC2)C3C)CC1` (mixture of isomers) [Compound B73, (E/Z)-3-cyclohexyl-2-(5-((4-(2,6-dimethoxy-4-(1,4,5-trimethyl-6-oxo-1,6-dihydropyridin-3-yl)benzyl)piperazin-1-yl)methyl)-1-methyl-1,2,3,4-tetrahydroisoquinoline-2-carbonyl)acrylonitrile], the DC50 lay in the range of 25 to 1000 nM and the Dmax was 40 to 70%.
Turning to `CC[C@@H]1CN(Cc2cccc3c2CCN(C(=O)/C(C#N)=C/C(C)(C)C)C3C)CCN1Cc1c(OC)cc(-c2cn(C)c(=O)c(C)c2C)cc1OC` (mixture of isomers) [Compound B120, (E/Z)-2-(5-(((R)-4-(2,6-dimethoxy-4-(1,4,5-trimethyl-6-oxo-1,6-dihydropyridin-3-yl)benzyl)-3-ethylpiperazin-1-yl)methyl)-1-methyl-1,2,3,4-tetrahydroisoquinoline-2-carbonyl)-4,4-dimethylpent-2-enenitrile], the DC50 was 1.25 to 10 nM and the Dmax fell in the range of 70 to 75%.
For `COc1cc(-c2cn(C)c(=O)c3[nH]ncc23)cc(OC)c1CN1CCN(Cc2cccc3c2CCN(C(=O)/C(C#N)=C/C(C)(C)C)C3C)C2(CC2)C1` (mixture of isomers) [Compound B104, (E/Z)-2-(5-((7-(2,6-dimethoxy-4-(6-methyl-7-oxo-6,7-dihydro-1H-pyrazolo[3,4-c]pyridin-4-yl)benzyl)-4,7-diazaspiro[2.5]octan-4-yl)methyl)-1-methyl-1,2,3,4-tetrahydroisoquinoline-2-carbonyl)-4,4-dimethylpent-2-enenitrile], in that order: less than 1.25 nM and greater than 75%.
Take `COc1ccc(/C=C(\C#N)C(=O)N2CCc3c(CN4CCN(Cc5c(OC)cc(-c6cn(C)c(=O)c(C)c6C)cc5OC)CC4)cccc3C2C)cn1` (mixture of isomers) [Compound B71, (E/Z)-2-(5-((4-(2,6-dimethoxy-4-(1,4,5-trimethyl-6-ox0-1,6-dihydropyridin-3-yl)benzyl)piperazin-1-yl)methyl)-1-methyl-1,2,3,4-tetrahydroisoquinoline-2-carbonyl)-3-(6-methoxypyridin-3-yl)acrylonitrile]: the DC50 is 1.25 to 10 nM and the Dmax lay in the range of 40 to 70%.
For `COc1cc(-c2cn(C)c(=O)c(C)c2C)cc(OC)c1CN1CCC(Oc2cccc(C3CCCN3C(=O)/C(C#N)=C/C(C)(C)C)c2)CC1` (mixture of isomers) [Compound B48, (E/Z)-2-(2-(3-((1-(2,6-dimethoxy-4-(1,4,5-trimethyl-6-oxo-1,6-dihydropyridin-3-yl)benzyl)piperidin-4-yl)oxy)phenyl)pyrrolidine-1-carbonyl)-4,4-dimethylpent-2-enenitrile], in that order: 1.25 to 10 nM and greater than 75%.
For `COc1cc(-c2cn(C)c(=O)c(C)c2C)cc(OC)c1CN1CCC(Oc2ccc3c(c2)[C@H](C)N(C(=O)/C(C#N)=C/C(C)(C)C)CC3)CC1` (single isomer, unassigned) [Compound C73, (E/Z)-2-(7-((1-(2,6-dimethoxy-4-(1,4,5-trimethyl-6-oxo-1,6-dihydropyridin-3-yl)benzyl)piperidin-4-yl)oxy)-1-methyl-1,2,3,4-tetrahydroisoquinoline-2-carbonyl)-4,4-dimethylpent-2-enenitrile], in that order: 1.25 to 10 nM and greater than 75%.
For `COc1cc(-c2cn(C)c(=O)c(C)c2C)cc(OC)c1CN1CCN(Cc2cccc3c2CCN(C(=O)/C(C#N)=C/C2(C)CCOC2)C3C)C2(CC2)C1` (mixture of isomers) [Compound B174, (E/Z)-2-(5-((7-(2,6-dimethoxy-4-(1,4,5-trimethyl-6-oxo-1,6-dihydropyridin-3-yl)benzyl)-4,7-diazaspiro[2.5]octan-4-yl)methyl)-1-methyl-1,2,3,4-tetrahydroisoquinoline-2-carbonyl)-3-(3-methyltetrahydrofuran-3-yl)acrylonitrile], in that order: less than 1.25 nM and greater than 75%.
Consider `COc1cc(-c2cn(C)c(=O)c(C)c2C)cc(OC)c1CN1CCN(Cc2cccc3c2CCN(C(=O)/C(C#N)=C/C(C)(C)C)[C@@H]3C)[C@@H](C)C1` (single isomer, unassigned) [Compound B198], for which the DC50 lay within 1.25 to 10 nM and the Dmax is greater than 75%.
